ChEMBL document CHEMBL3822442, “Synthesis and Pharmacological Characterization of Novel Glucagon-like Peptide-2 (GLP-2) Analogues with Low Systemic Clearance” (J Med Chem, 2016)
Calls of active or inactive are those of the source. The rule behind the calls is not given here.

Columns and labels:
[1] = molecular target: T1, Glucagon-like peptide 2 receptor (Homo sapiens, UniProt O95838); assay: Agonist activity at human GLP2R expressed in HEK293 cells after 5 hrs by luciferase reporter gene assay; type: cell-based
T1 sequence (O95838 whole entry): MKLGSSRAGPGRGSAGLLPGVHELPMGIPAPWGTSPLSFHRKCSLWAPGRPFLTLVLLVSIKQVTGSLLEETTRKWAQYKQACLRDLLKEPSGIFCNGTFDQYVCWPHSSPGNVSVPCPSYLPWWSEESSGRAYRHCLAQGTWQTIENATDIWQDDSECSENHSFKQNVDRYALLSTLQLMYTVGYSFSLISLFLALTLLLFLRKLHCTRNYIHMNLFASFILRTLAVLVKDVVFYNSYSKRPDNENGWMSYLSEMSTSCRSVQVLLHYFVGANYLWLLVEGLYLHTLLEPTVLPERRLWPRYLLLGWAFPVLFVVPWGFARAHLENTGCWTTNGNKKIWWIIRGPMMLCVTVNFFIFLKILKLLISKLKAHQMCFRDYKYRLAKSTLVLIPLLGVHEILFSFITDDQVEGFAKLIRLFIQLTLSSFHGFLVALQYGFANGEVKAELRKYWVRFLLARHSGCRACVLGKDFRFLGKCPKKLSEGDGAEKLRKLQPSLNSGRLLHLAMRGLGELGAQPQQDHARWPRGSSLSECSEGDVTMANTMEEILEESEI

[2] = molecular target: T2, Glucagon-like peptide 1 receptor (Homo sapiens, UniProt P43220); assay: Agonist activity at human GLP1R expressed in HEK293 cells after 5 hrs by luciferase reporter gene assay; type: cell-based
[3] = molecular target: T2, Glucagon-like peptide 1 receptor; assay: Agonist activity at human GLP1R expressed in HEK293 cells at 30 nM after 5 hrs by luciferase reporter gene assay; type: cell-based
HEK293 = assay: Selectivity ratio of EC50 for human GLP1R expressed in HEK293 cells to EC50 for human GLP2R expressed in HEK293; type: cell-based
[4] = molecular target: Glucagon receptor (Homo sapiens) (UniProt P47871); assay: Agonist activity at human GCGR expressed in HEK293 cells after 5 hrs by luciferase reporter gene assay; type: cell-based
[5] = Systemic clearance in Sprague-Dawley rat at 0.2 mg/kg, iv through cassette dosing measured up to 300 mins by LC/MS/MS analysis; type: ADME, organism-based; conditions: in vivo

T2 sequence (P43220 whole entry): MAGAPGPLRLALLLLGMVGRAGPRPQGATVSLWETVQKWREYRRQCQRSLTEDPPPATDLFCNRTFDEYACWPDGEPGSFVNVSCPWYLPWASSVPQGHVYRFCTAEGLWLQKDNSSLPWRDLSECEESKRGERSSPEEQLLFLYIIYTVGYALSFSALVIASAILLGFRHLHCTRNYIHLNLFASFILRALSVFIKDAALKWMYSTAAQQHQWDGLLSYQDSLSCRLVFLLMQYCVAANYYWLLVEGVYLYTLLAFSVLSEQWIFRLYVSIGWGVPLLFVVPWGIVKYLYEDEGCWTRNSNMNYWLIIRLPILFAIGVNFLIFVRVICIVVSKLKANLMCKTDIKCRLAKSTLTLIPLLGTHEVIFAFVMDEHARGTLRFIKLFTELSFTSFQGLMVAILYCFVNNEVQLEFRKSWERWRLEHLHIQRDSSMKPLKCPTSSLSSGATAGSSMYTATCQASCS
Glucagon receptor (Homo sapiens), sequence (P47871 whole entry): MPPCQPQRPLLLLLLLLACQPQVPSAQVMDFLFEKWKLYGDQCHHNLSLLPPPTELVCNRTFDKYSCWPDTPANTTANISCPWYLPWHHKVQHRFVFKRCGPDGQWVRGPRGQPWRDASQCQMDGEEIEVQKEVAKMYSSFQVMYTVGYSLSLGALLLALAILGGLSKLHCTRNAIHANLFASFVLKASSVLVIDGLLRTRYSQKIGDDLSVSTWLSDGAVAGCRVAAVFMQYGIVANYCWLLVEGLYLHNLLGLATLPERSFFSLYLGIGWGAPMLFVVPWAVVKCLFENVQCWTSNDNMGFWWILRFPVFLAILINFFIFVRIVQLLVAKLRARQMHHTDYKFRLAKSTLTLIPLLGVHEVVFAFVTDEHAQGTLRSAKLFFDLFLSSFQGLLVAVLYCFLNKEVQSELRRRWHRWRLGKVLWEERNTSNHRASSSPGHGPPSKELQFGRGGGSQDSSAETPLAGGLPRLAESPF

Row | Compound | EC50 [1] | EC50 [2] | Efficacy [3] | Activity [4] | clearance [5] | Ratio EC50 (HEK293)
1 | CCCCC(NC(=O)[C@H](CCC(=O)O)NC(=O)[C@H](CC(=O)O)NC(=O)[C@H](CO)NC(=O)[C@H](Cc1ccccc1)NC(=O)[C@H](CO)NC(=O)CNC(=O)[C@H](CC(=O)O)NC(=O)CNC(=O)[C@@H](N)Cc1cnc[nH]1)C(=O)N[C@@H](Cc1cnc[nH]1)C(=O)N[C@H](C(=O)N[C@H](C(=O)N[C@@H](CC(C)C)C(=O)N[C@@H](CC(=O)O)C(=O)N[C@@H](CC(N)=O)C(=O)N[C@@H](CC(C)C)C(=O)N[C@@H](C)C(=O)N[C@@H](C)C(=O)N[C@@H](CCCNC(=N)N)C(=O)N[C@@H](CC(=O)O)C(=O)N[C@@H](Cc1ccccc1)C(=O)N[C@H](C(=O)N[C@@H](CC(N)=O)C(=O)N[C@@H](Cc1c[nH]c2ccccc12)C(=O)N[C@@H](CC(C)C)C(=O)N[C@H](C(=O)N[C@@H](CCC(N)=O)C(=O)N[C@H](C(=O)N[C@@H](CCCCN)C(N)=O)[C@@H](C)O)[C@@H](C)CC)[C@@H](C)CC)[C@@H](C)CC)[C@@H](C)O (stereo partly specified) | 0.44 nM | 300 nM | 35% | inactive | – | 680
2 | CCCCC(NC(=O)[C@H](CCC(=O)O)NC(=O)[C@H](CC(=O)O)NC(=O)[C@H](CO)NC(=O)[C@H](Cc1ccccc1)NC(=O)[C@H](CO)NC(=O)CNC(=O)[C@H](CC(=O)O)NC(=O)CNC(=O)[C@@H](N)Cc1cnc[nH]1)C(=O)N[C@H](Cc1ccc(-c2ccccc2)cc1)C(=O)N[C@H](C(=O)N[C@H](C(=O)N[C@@H](CC(C)C)C(=O)N[C@@H](CC(=O)O)C(=O)N[C@@H](CC(N)=O)C(=O)N[C@@H](CC(C)C)C(=O)N[C@@H](C)C(=O)N[C@@H](C)C(=O)N[C@@H](CCCNC(=N)N)C(=O)N[C@@H](CC(=O)O)C(=O)N[C@@H](Cc1ccccc1)C(=O)N[C@H](C(=O)N[C@@H](CC(N)=O)C(=O)N[C@@H](Cc1c[nH]c2ccccc12)C(=O)N[C@@H](CC(C)C)C(=O)N[C@H](C(=O)N[C@@H](CCC(N)=O)C(=O)N[C@H](C(=O)N[C@@H](CCCCN)C(N)=O)[C@@H](C)O)[C@@H](C)CC)[C@@H](C)CC)[C@@H](C)CC)[C@@H](C)O (stereo partly specified) | 1.9 nM | 39 nM | 108% | inactive | – | 20
3 | CCCCC(NC(=O)[C@H](CCC(=O)O)NC(=O)[C@H](CC(=O)O)NC(=O)[C@H](CO)NC(=O)[C@H](Cc1ccccc1)NC(=O)[C@H](CO)NC(=O)CNC(=O)[C@H](CC(=O)O)NC(=O)CNC(=O)[C@@H](N)Cc1cnc[nH]1)C(=O)N[C@H](Cc1ccc(Cl)cc1)C(=O)N[C@H](C(=O)N[C@H](C(=O)N[C@@H](CC(C)C)C(=O)N[C@@H](CC(=O)O)C(=O)N[C@@H](CC(N)=O)C(=O)N[C@@H](CC(C)C)C(=O)N[C@@H](C)C(=O)N[C@@H](C)C(=O)N[C@@H](CCCNC(=N)N)C(=O)N[C@@H](CC(=O)O)C(=O)N[C@@H](Cc1ccccc1)C(=O)N[C@H](C(=O)N[C@@H](CC(N)=O)C(=O)N[C@@H](Cc1c[nH]c2ccccc12)C(=O)N[C@@H](CC(C)C)C(=O)N[C@H](C(=O)N[C@@H](CCC(N)=O)C(=O)N[C@H](C(=O)N[C@@H](CCCCN)C(N)=O)[C@@H](C)O)[C@@H](C)CC)[C@@H](C)CC)[C@@H](C)CC)[C@@H](C)O (stereo partly specified) | – | – | 86% | inactive | – | 660
4 | CCCCC(NC(=O)[C@H](CCC(=O)O)NC(=O)[C@H](CC(=O)O)NC(=O)[C@H](CO)NC(=O)[C@H](Cc1ccccc1)NC(=O)[C@@H](CO)NC(=O)CNC(=O)[C@@H](CC(=O)O)NC(=O)CNC(=O)[C@@H](N)Cc1cnc[nH]1)C(=O)NC(CCC(C)C)C(=O)N[C@H](C(=O)N[C@H](C(=O)N[C@@H](CC(C)C)C(=O)N[C@@H](CC(=O)O)C(=O)N[C@@H](CC(N)=O)C(=O)N[C@@H](CC(C)C)C(=O)N[C@@H](C)C(=O)N[C@@H](C)C(=O)N[C@@H](CCCNC(=N)N)C(=O)N[C@@H](CC(=O)O)C(=O)N[C@H](Cc1ccccc1)C(=O)N[C@@H](C(=O)N[C@H](CC(N)=O)C(=O)N[C@@H](Cc1c[nH]c2ccccc12)C(=O)N[C@H](CC(C)C)C(=O)N[C@@H](C(=O)N[C@H](CCC(N)=O)C(=O)N[C@@H](C(=O)N[C@@H](CCCCN)C(N)=O)[C@H](C)O)[C@H](C)CC)[C@H](C)CC)[C@H](C)CC)[C@@H](C)O (stereo partly specified) | 0.29 nM | 10 nM | 87% | inactive | – | 34
5 | CCCCC(NC(=O)[C@H](CCC(=O)O)NC(=O)[C@H](CC(=O)O)NC(=O)[C@H](CO)NC(=O)[C@H](Cc1ccccc1)NC(=O)[C@H](CO)NC(=O)CNC(=O)[C@H](CC(=O)O)NC(=O)CNC(=O)[C@@H](N)Cc1cnc[nH]1)C(=O)N[C@H](Cc1ccccc1)C(=O)N[C@H](C(=O)N[C@H](C(=O)N[C@@H](CC(C)C)C(=O)N[C@@H](CC(=O)O)C(=O)N[C@@H](CC(N)=O)C(=O)N[C@@H](CC(C)C)C(=O)N[C@@H](C)C(=O)N[C@@H](C)C(=O)N[C@@H](CCCNC(=N)N)C(=O)N[C@@H](CC(=O)O)C(=O)N[C@@H](Cc1ccccc1)C(=O)N[C@H](C(=O)N[C@@H](CC(N)=O)C(=O)N[C@@H](Cc1c[nH]c2ccccc12)C(=O)N[C@@H](CC(C)C)C(=O)N[C@H](C(=O)N[C@@H](CCC(N)=O)C(=O)N[C@H](C(=O)N[C@@H](CCCCN)C(N)=O)[C@@H](C)O)[C@@H](C)CC)[C@@H](C)CC)[C@@H](C)CC)[C@@H](C)O (stereo partly specified) | – | – | 64% | inactive | – | 1300

More lines, in order of falling EC50 [1], values ahead:

Row | EC50 [1] | EC50 [2] | Efficacy [3] | Activity [4] | clearance [5] | Compound | Ratio EC50 (HEK293)
6 | 0.18 nM | 21 nM | 83% | inactive | – | CCCCC(NC(=O)[C@@H](CCC(=O)O)NC(=O)[C@@H](CC(=O)O)NC(=O)[C@@H](CO)NC(=O)[C@@H](Cc1ccccc1)NC(=O)[C@@H](CO)NC(=O)CNC(=O)[C@@H](CC(=O)O)NC(=O)CNC(=O)[C@@H](N)Cc1cnc[nH]1)C(=O)NC(Cc1ccc(-c2ccccc2)cc1)C(=O)N[C@@H](C(=O)N[C@@H](C(=O)N[C@H](CC(C)C)C(=O)N[C@H](CC(=O)O)C(=O)N[C@H](CC(N)=O)C(=O)N[C@H](CC(C)C)C(=O)N[C@H](C)C(=O)N[C@H](C)C(=O)N[C@H](CCCNC(=N)N)C(=O)N[C@H](CC(=O)O)C(=O)N[C@H](Cc1ccccc1)C(=O)N[C@@H](C(=O)N[C@H](CC(N)=O)C(=O)N[C@@H](Cc1c[nH]c2ccccc12)C(=O)N[C@@H](CC(C)C)C(=O)N[C@H](C(=O)N[C@@H](CCC(N)=O)C(=O)N[C@H](C(=O)N[C@H](CCCCN)C(N)=O)[C@@H](C)O)[C@H](C)CC)[C@@H](C)CC)[C@H](C)CC)[C@H](C)O (stereo partly specified) | 110
7 | 0.15 nM | 180 nM | 44% | inactive | – | CCCCC(NC(=O)[C@H](CCC(=O)O)NC(=O)[C@H](CC(=O)O)NC(=O)[C@H](CO)NC(=O)[C@H](Cc1ccccc1)NC(=O)[C@H](CO)NC(=O)CNC(=O)[C@H](CC(=O)O)NC(=O)CNC(=O)[C@@H](N)Cc1cnc[nH]1)C(=O)N[C@@H](CC(C)C)C(=O)N[C@H](C(=O)N[C@H](C(=O)N[C@@H](CC(C)C)C(=O)N[C@@H](CC(=O)O)C(=O)N[C@@H](CC(N)=O)C(=O)N[C@@H](CC(C)C)C(=O)N[C@@H](C)C(=O)N[C@@H](C)C(=O)N[C@@H](CCCNC(=N)N)C(=O)N[C@@H](CC(=O)O)C(=O)N[C@@H](Cc1ccccc1)C(=O)N[C@H](C(=O)N[C@@H](CC(N)=O)C(=O)N[C@@H](Cc1c[nH]c2ccccc12)C(=O)N[C@@H](CC(C)C)C(=O)N[C@H](C(=O)N[C@@H](CCC(N)=O)C(=O)N[C@H](C(=O)N[C@@H](CCCCN)C(N)=O)[C@@H](C)O)[C@@H](C)CC)[C@@H](C)CC)[C@@H](C)CC)[C@@H](C)O (stereo partly specified) | –
8 | 0.09 nM | 83 nM | 39% | inactive | 1.3 mL/min/kg | CCCCC(NC(=O)[C@H](CCC(=O)O)NC(=O)[C@H](CC(=O)O)NC(=O)[C@H](CO)NC(=O)[C@H](Cc1ccccc1)NC(=O)[C@H](CO)NC(=O)CNC(=O)[C@H](CC(=O)O)NC(=O)CNC(=O)[C@@H](N)Cc1cnc[nH]1)C(=O)N[C@H](Cc1ccsc1)C(=O)N[C@H](C(=O)N[C@H](C(=O)N[C@@H](CC(C)C)C(=O)N[C@@H](CC(=O)O)C(=O)N[C@@H](CC(N)=O)C(=O)N[C@@H](CC(C)C)C(=O)N[C@@H](C)C(=O)N[C@@H](C)C(=O)N[C@@H](CCCNC(=N)N)C(=O)N[C@@H](CC(=O)O)C(=O)N[C@@H](Cc1ccccc1)C(=O)N[C@H](C(=O)N[C@@H](CC(N)=O)C(=O)N[C@@H](Cc1c[nH]c2ccccc12)C(=O)N[C@@H](CC(C)C)C(=O)N[C@H](C(=O)N[C@@H](CCC(N)=O)C(=O)N[C@H](C(=O)N[C@@H](CCCCN)C(N)=O)[C@@H](C)O)[C@@H](C)CC)[C@@H](C)CC)[C@@H](C)CC)[C@@H](C)O (stereo partly specified) | 920
